Series [1] concerns the target T1, TX (Homo sapiens, UniProt P49662).
T1 construct: made in house; host or cells: Spodoptera frugiperda (Sf9) insect cells, recombinant baculovirus (pVL1393/TX)
T1 sequence (P49662 81-270 limits assumed): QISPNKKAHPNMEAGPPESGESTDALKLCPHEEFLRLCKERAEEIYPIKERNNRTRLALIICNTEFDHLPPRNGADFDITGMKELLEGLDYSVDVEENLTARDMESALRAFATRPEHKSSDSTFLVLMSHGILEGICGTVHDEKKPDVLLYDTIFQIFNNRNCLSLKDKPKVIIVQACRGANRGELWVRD
T1 sequence (P49662 290-377 limits assumed): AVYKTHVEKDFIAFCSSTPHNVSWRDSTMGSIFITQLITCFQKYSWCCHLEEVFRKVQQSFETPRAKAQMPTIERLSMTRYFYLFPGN
Description: Inhibition of ICE homologs: TX. The following applies: for kinact (TX): second-order rate constant for inactivation, irreversible inhibitors (Table 2); for Ki: ICE substrate, conditions identical to ICE (Table 1). The class given is biochemical. From the text:
Expression of TX in insect cells using a baculovirus expression system. We have subcloned Tx cDNA (Faucheu et al., supra 1995) into a modified pVL1393 transfer vector, co-transfected the resultant plasmid (pVL1393/TX) into insect cells with viral DNA and identified the recombinant baculovirus. After the generation of high titer recombinant virus stock, the medium was examined for TX activity using the visible ICE assay. […] ICE was used as a standard in the assay.
The selectivity of a panel of reversible inhibitors for ICE homologs is depicted in Table 1. ICE enzyme assays were performed according to Wilson et al (supra 1994) using a YVAD-AMC substrate (Thornberry et al, supra 1992). Assay of TX activity was performed using the ICE substrate under identical conditions to ICE. Assay of CPP32 was performed using a DEVD-AMC substrate (Nicholson et al., supra 1995). In general, there is low selectivity between ICE and TX for a wide range of scaffolds. None of the synthetic ICE compounds tested are effective inhibitors of CPP32.
Second-order rate constants for inactivation of ICE and ICE homologs with selected irreversible inhibitors are presented below (Table 2). The irreversible compounds studied are broad spectrum inhibitors of ICE and its homologs. Some selectivity, however, is observed with the irreversible compounds comparing inhibition of ICE and CPP32.

The target of series [2] is T2, CPP32 (Homo sapiens, UniProt P42574).
T2 sequence (P42574 29-175 limits assumed): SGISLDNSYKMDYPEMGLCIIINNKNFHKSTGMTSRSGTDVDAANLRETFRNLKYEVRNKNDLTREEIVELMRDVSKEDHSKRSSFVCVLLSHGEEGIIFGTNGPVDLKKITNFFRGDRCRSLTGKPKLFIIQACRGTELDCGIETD
T2 sequence (P42574 176-277 limits assumed): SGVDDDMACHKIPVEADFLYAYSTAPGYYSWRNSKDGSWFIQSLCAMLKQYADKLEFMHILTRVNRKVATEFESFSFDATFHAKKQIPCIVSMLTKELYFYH
Description: Inhibition of ICE homologs: CPP32 (DEVD-AMC substrate). The settings on record: for kinact (CPP32): second-order rate constant for inactivation, irreversible inhibitors (Table 2).

Series [3] is described as follows: Pharmacokinetic studies in the mouse (i.v. clearance, plasma levels). The class given is in vivo. The following applies: 25 mg/kg; for clearance: CD-1, plasma. The method in brief: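 Male CD-1 mice (26-31 g) given 25 mg/kg i.v. via tail vein in 0.02M Tris (2.5 mg/ml), groups of 5 per timepoint from 2 to 120 min. Heparinized plasma deproteinated (perchloric acid or acetonitrile) and analysed by reverse-phase HPLC with UV or MS detection against plasma-spiked calibration (0.5 to 50 μg/ml).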

We go through 17 molecules from patent US20120165319A1, “INHIBITORS OF INTERLEUKIN-1 BETA CONVERTING ENZYME” (VERTEX PHARMACEUTICALS INCORPORATED, priority 1995, published 2012).

Structures are written as SMILES. Some results are limits rather than exact numbers.

As a reminder, the melting point is the temperature of the solid-liquid transition. For orientation: clearance means a measure of how efficiently the substance is removed, as volume per time. By Ki is commonly meant a measure of affinity in units of concentration, obtained from inhibition or displacement. Low values mean a stronger hold on the target, high ones a looser hold on the target.

In turn, `O=C(O)C[C@H](NC(=O)[C@@H]1CCCN2C(=O)CC[C@H](NC(=O)OCc3ccccc3)C(=O)N12)C(=O)COC(=O)c1c(Cl)cccc1Cl` [Compound 217d, [3S(1S,9S)]3-(9-Benzyloxycarbonylamino-6,10-dioxo-1,2,3,4,7,8,9,10-octahydro-6H-pyridazino[1,2-a][1,2]-diazepine-1-carboxamido)-5-(2,6-dichlorobenzoyloxy)-4-oxopentanoic acid] gave a melting point of 85 to 110 °C. Besides, the “kinact (TX)” value in series [1] is reported as 250,000 M^−1 s^−1. Besides, the “kinact (CPP32)” value in series [2] is 150,000 M^−1 s^−1.
As to `CS(=O)(=O)N[C@H]1CCC(=O)N2CCC[C@@H](C(=O)N[C@@H](CC(=O)O)C(=O)COC(=O)c3c(Cl)cccc3Cl)N2C1=O` [Compound 138], the “kinact (TX)” value in series [1] is 150,000 M^−1 s^−1. Besides, the “kinact (CPP32)” value in series [2] is 550,000 M^−1 s^−1. Further, in series [3] (iv, mouse), the clearance was found to be 116 mL/min/kg.
`O=C[C@H](CC(=O)O)NC(=O)[C@@H]1CCCN2C(=O)CC[C@H](NC(=O)c3ccc4c(c3)OCO4)C(=O)N12` [Compound 415, [3S(1S,9S)]3-[6,10-Dioxo-9-(3,4-methylenedioxybenzoylamino)-1,2,3,4,7,8,9,10-octahydro-6H-pyridazino[1,2-a][1,2]diazepine-1-carboxamido]-4-oxobutanoic acid] registered a melting point of 158 to 162 °C. In series [3] (iv, mouse), this molecule returned a clearance of 26 mL/min/kg.
Regarding `COC(=O)N[C@H]1CCC(=O)N2CCC[C@@H](C(=O)N[C@@H](CC(=O)O)C(=O)CSc3ncccn3)N2C1=O` [Compound 511c, [3S(1S,9S)]3-[6,10-Dioxo-9-(methoxycarbonyl)-amino-1,2,3,4,7,8,9,10-octahydro-6H-pyridazino[1,2-a][1,2]diazepine-1-carboxamido]-5-(2-mercaptopyrimidine)-4-oxopentanoic acid], the melting point was 105 °C (dec.). In addition, in series [3] (iv, mouse, Table 17), the clearance was found to be 78 mL/min/kg.
With `O=C[C@H](CC(=O)O)NC(=O)[C@@H]1CCCN2CCC[C@H](NC(=O)c3ccccc3)C(=O)N12` [Compound 246], the melting point fell in the range of 110 to 115 °C. Moreover, in series [3] (iv, mouse), the clearance came out at 31 mL/min/kg.
In the same order, the values of `COc1cc(C(=O)N[C@H]2CCC(=O)N3CCC[C@@H](C(=O)N[C@H](C=O)CC(=O)O)N3C2=O)cc(OC)c1OC` [Compound 417, [3S(1S,9S)]3-[6,10-Dioxo-1,2,3,4,7,8,9,10-octahydro-9-(3,4,5-trimethoxybenzoylamino)-6H-pyridazino[1,2-a][1,2]diazepine-1-carboxamido]-4-oxobutanoic acid] are 145 to 155 °C and 33 mL/min/kg.
For `COC(=O)N[C@H]1CCC(=O)N2CCC[C@@H](C(=O)N[C@@H](CC(=O)O)C(=O)COC(=O)c3c(C)cccc3C)N2C1=O` [Compound 285, [3S(1S,9S)]5-(2,6-Dimethylbenzoyloxy)-3-[6,10-dioxo-9-(methoxycarbonyl)amino-1,2,3,4,7,8,9,10-octahydro-6H-pyridazino[1,2-a][1,2]diazepine-1-carboxamido]-4-oxopentanoic acid] the same measures were 110 °C (dec.) and 130 mL/min/kg.
`O=C(O)C[C@H](NC(=O)[C@@H]1CCCN2C(=O)CC[C@H](NC(=O)CCc3ccccc3)C(=O)N12)C(=O)CSCc1ccccc1Cl` [Compound 125b, [3S(1S,9S)]-3-(6,10-dioxo-1,2,3,4,7,8,9,10-octahydro)-9-(3-phenylpropionyl-amino)-6H-pyridazine[1,2-a][1,2]diazepine-1-carboxamido-5-(2-chlorophenyl-methylthio)-4-oxopentanoic acid] returned a melting point of 76 to 80 °C. This molecule also had a Ki in series [1] of 57 ± 13 nM. This molecule came in with an inhibitory constant (Ki) in series [2] of more than 1000 nM.
Take `O=C[C@H](CC(=O)O)NC(=O)[C@@H]1CCCN2C(=O)CC[C@H](NC(=O)c3cccc4ccccc34)C(=O)N12` [Compound 408, [3S(1S,9S)]3-[6,10-Dioxo-9-(naphth-1-oylamino)-1,2,3,4,7,8,9,10-octahydro-6H-pyridazino[1,2-a][1,2]diazepine-1-carboxamido]-4-oxobutanoic acid]: the melting point lay in the range of 157 to 165 °C. The clearance in series [3] (iv, mouse) came to 41 mL/min/kg.
In the same order, the values of `O=C(O)C[C@H](NC(=O)[C@@H]1CCCN2C(=O)CC[C@H](NC(=O)c3ccccc3)C(=O)N12)C(=O)c1nc2cc(Cl)cc(Cl)c2o1` [Compound 223e, [3S(1S,9S)]3-(9-Benzoylamino-6,10-dioxo-1,2,3,4,7,8,9,10-octahydro-6H-pyridazino-[1,2-a][1,2]diazepine-1-carboxamido)-4-(5,7-dichlorobenzoxazol-2-yl)-4-oxobutanoic acid] are 167 to 180 °C and 89 mL/min/kg.
For `Cc1ccccc1C(=O)N[C@H]1CCC(=O)N2CCC[C@@H](C(=O)N[C@H](C=O)CC(=O)O)N2C1=O` [Compound 404] the same measures were 156 to 159 °C and 64 mL/min/kg.
Consider `O=C[C@H](CC(=O)O)NC(=O)[C@@H]1CCCN2C(=O)CC[C@H](NC(=O)c3cc4ccccc4[nH]3)C(=O)N12` [Compound 475, [3S(1S,9S)]3-[6,10-Dioxo-9-(indol-2-oylamino)-1,2,3,4,7,8,9,10-octahydro-6H-pyridazino[1,2-a][1,2]diazepine-1-carboxamido]-4-oxobutanoic acid], for which the melting point turned out to be 150 °C. For the same molecule, the clearance in series [3] (iv, mouse) is 31 mL/min/kg.
Regarding `O=C[C@H](CC(=O)O)NC(=O)[C@@H]1CCCN2C(=O)CC[C@H](NC(=O)c3ccccc3)C(=O)N12` [Compound 214e, [3S(1S,9S)]3-(9-Benzoylamino-6,10-dioxo-1,2,3,4,7,8,9,10-octahydro-6H-pyridazino[1,2-a][1,2]-diazepine-1-carboxamido)-4-oxobutanoic acid], the Ki is 7 ± 1.1 nM in series [1] and more than 1000 nM in series [2]. The molecule also displayed a clearance in series [3] (iv, mouse) of 23 mL/min/kg. Further, in series [3] (male CD-1 mice, i.v. tail vein), the “mean plasma level at 90 and 120 minutes” value was less than 2 µg/mL. In addition, in series [3] (mouse, plasma, iv, male CD-1 mice, i.v. tail vein, read-out: mean plasma level at 2 minutes), the concentration at 2 min is 70 µg/mL.
Take `COc1cccc2nc(C(=O)[C@H](CC(=O)O)NC(=O)[C@@H]3CCCN4C(=O)CC[C@H](NC(=O)CCc5ccccc5)C(=O)N34)oc12` [Compound 135a]: the inhibition constant (Ki) in series [1] is 55 ± 9 nM; in series [2] it was more than 1000 nM. The same molecule displayed a clearance in series [3] (iv, mouse) of more than 100 mL/min/kg.
As to `O=C1C[C@H](NC(=O)[C@@H]2CCCN3C(=O)CC[C@H](NC(=O)c4cccc5ccccc45)C(=O)N23)C(OCc2ccccc2)O1` (stereo partly drawn) [Compound 213v, [1S,9S(2RS,3S)]N-(2-Benzyloxy-5-oxotetrahydrofuran-3-yl)-6,10-dioxo-9-(naphth-1-oylamino)-1,2,3,4,7,8,9,10-octahydro-6H-pyridazino[1,2-a][1,2]diazepine-1-carboxamide], the melting point fell in the range of 121 to 127 °C. The molecule further had a clearance in series [3] (iv, mouse, Table 17) of 41 mL/min/kg.
For the molecule `O=C(O)C[C@H](NC(=O)[C@@H]1CCCN2C(=O)CC[C@H](NC(=O)CCc3ccccc3)C(=O)N12)C(=O)c1ncc(-c2c(Cl)cccc2Cl)o1` [Compound 137], the Ki is 40 ± 7 nM in series [1] and more than 1000 nM in series [2].
With `O=C(O)C[C@H](NC(=O)[C@@H]1CCCN2C(=O)CC[C@H](NC(=O)c3ccccc3)C(=O)N12)C(=O)CSCc1ccccc1Cl` [Compound 226e, [3S(1S,9S)]3-(9-Benzoylamino-6,10-dioxo-1,2,3,4,7,8,9,10-octahydro-6H-pyridazino[1,2-a][1,2]-diazepine-1-carboxamido)-5-(2-chlorophenyl)methylthio-4-oxopentanoic acid], the melting point was 95 to 100 °C. This molecule had a clearance in series [3] (iv, mouse) of 109 mL/min/kg.
